We go through 10 compounds from patent publication US10829798B2, “DNA-linked enzyme-coupled assays” (THE REGENTS OF THE UNIVERSITY OF CALIFORNIA, priority 2014, dated 2020).

Test [1] has as its target T1, OleD (Streptomyces antibioticus, UniProt Q53685, P55A/R82V/R83E/T84P).
T1 construct: made in house; host or cells: PURExpress In Vitro Protein Synthesis Kit (NEB E6800L), cell-free transcription/translation, linear DNA with T7 promoter
Nature of the test: LCMS analysis of OleD-catalyzed glucosylation in cell-free reactions. It counts as biochemical. Particulars: equal-molar chemical and UDP-glucose, PURExpress, 3 hours at 37° C. From the text: Determination of glucosylation was accomplished by means of an LCMS system consisting of an Agilent Technologies 1200 series HPLC with an Agilent Technologies 6520 Accurate Mass qTOF LC/MS. An Eclipse Plus C18 (4.6 mm×100 mm i.d., 3.5-μm packing, Agilent Technologies) reverse-phase column with a guard Zorbax Eclipse Plus C18 column ([…], 5 μm packing, Agilent Technologies) was used for separating the samples. Water+0.1% Formic Acid and Acetonitrile+0.1% Formic Acid were used as mobile phases at a flow rate of 500 μl/min. The elution gradient water/acetonitrile ratio) was ramped as follows: 98:2 (v/v) (0-2 min), 98:2-5:95 (v/v) linearly (2-17 min), 5:95 (v/v) (17-27 min), and 5:95-98-2 (v/v) (27-28 min). Full scanning mode (50-750 m/z) was used for data acquisition in a positive-ion mode, and the operation parameters were as follows: ESI probe capillary voltage, +3.5 kV with a scan rate of 1.01 scans/second. The nebulizer gas flow rate was 7 L/min. During the analysis two references (121.0509 m/z (C5H4N4) and 922.0098 m/z (C18H18O6N3P3F24)) were continuously measured to allow constant mass correction.
Samples were prepared directly from cell-free reactions. Equal-molar amounts of chemical and UDP-glucose were incubated with DNA encoding the glucosyltransferase of interest or water in PURExpress for 3 hours at 37° C. […]

Test [2] relates to OleD. Particulars: Williams 2007; Choi 2012; Yang 2005; cited from earlier work.
Test [3] deals with T1, OleD. Nature of the test: qPCR DLEnCA, cell-free transcription/translation-derived OleD. It counts as biochemical. Particulars: OleD DNA 5 nM, UDP-Glc 2 μM, probe 0.2 nM; for recovery of intact probe DNA: chemical 1 mM, low recovery = substrate glucosylated; for significant loss in protection of the DNA probe: flavone 1 mM. On the procedure:
(§1) FIG. 4A-FIG. 4D. qPCR DLEnCA and substrate specificity studies. A. Chemicals used as substrates in subsequent assays: (i) known substrates of OleD; (ii) flavone library; (iii) known substrates of GT05 (UGT72B1 (Q9M156)) and GT06 (UGT89B1 (AT1 G73880)). B. DNA encoding OleD (5 nM) was incubated in a cell-free transcription/translation system for 3 hours at 37° C., followed by the addition of chemical (1 mM) and UDP-Glc (2 μM). After a subsequent incubation of 3 hours, TbGT and probe (0.2 nM) were added. After probe purification and MfeI digestion, probe integrity was identified using qPCR. Percent recovery of probe is reported (n=8; error bars=standard error). C. DNA encoding OleD (5 nM) was incubated for 3 hours at 37° C. in a cell-free transcription/translation system, followed by the addition of flavone (1 mM) and UDP-Glc (2 μM). After a subsequent incubation of 3 hours, TbGT and probe (0.2 nM) were added. After probe purification and MfeI addition, probe integrity was identified using qPCR. Percent recovery of probe is reported (n=8; error bars=standard error). D. DNA encoding OleD, GT05, or GT06 (5 nM) were incubated for 3 hours at 37° C. in a cell-free transcription/translation system, followed by the addition of chemical (1 mM) and UDP-Glc (2 μM). After a subsequent incubation of 3 hours, TbGT and probe (0.2 nM) were added. After probe purification and MfeI digestion, probe integrity was identified using qPCR. Percent recovery of probe is reported as a heat map (n=8) (specific recovery figures and percent error can be found in FIG. 16). *=p<0.05 vs. no chemical control.
PCR tubes were used for most reactions. All incubations were performed at 37° C. Assays were initiated upon the addition of linear DNA (5 nM final concentration) to 4 μl PURExpress Solution A and 3 μl PURExpress Solution B. Samples were incubated at 37° C. for 3 hours prior to addition of UDP-Glucose and chemical (1 mM final concentration) in DMSO. Samples were incubated for an additional 3 hours prior to addition of 1 unit T4 Phage β-glucosyltransferase containing 0.2 nM probe. Samples were incubated an additional 3 hours before DNA was purified using the Zymo DNA Clean and Concentrator Kit. Samples were digested overnight with MfeI prior to analysis. Concentration of intact DNA probe was identified using the iQ SYBR Green Supermix (1708880) with probe DNA as standards. qPCR was carried out on the Bio-Rad iQ5 Multicolor Real-Time PCR Detection System using primers P13 and P14 with the following temperatures; 94° C. 30 seconds followed by 40 cycles of 94° C. 10 seconds and 55° C. for 30 seconds. All results were compared to uncut probe DNA that had been carried through the process as negative controls (considered full recovery of probe).
The second DLEnCA workflow developed involved qPCR as a final readout (qPCR DLEnCA, FIG. 1—qPCR workflow). A linear fragment of DNA was modified to contain 5-hm-cytosines throughout. To determine a threshold for probe protection under conditions amenable to the qPCR DLEnCA workflow, UDP-Glc was titrated into mixtures of the cell-free transcription/translation system containing 5-hm-cytosine-modified DNA probe (0.2 nM probe DNA containing 0.1 μM modified 5-hm-cytosines) and TbGT. After digestion with the restriction enzyme MfeI, the amount of intact DNA probe was determined using qPCR (FIG. 3C). […] A threshold for protection was identified at a 20:1 molar ratio of UDP-Glc to total 5-hm-cytosine in probe DNA; this UDP-Glc amount was used as the starting concentration of UDP-Glc for all qPCR experiments. To test the feasibility of qPCR DLEnCA, OleD was again tested upon the substrate kaempferol (FIG. 3D), using DNA encoding a promoter and OleD as starting material. As expected, when all components of the assay were present, 27% of intact probe DNA was recovered. […]
Background: Real-time PCR tracks product formation cycle by cycle.

The target in test [4] is T2, GT05 (UGT72B1 (Q9M156)) (Arabidopsis thaliana, UniProt Q9M156).
T2 construct: made in house; host or cells: PURExpress In Vitro Protein Synthesis Kit (NEB E6800L), cell-free transcription/translation, linear DNA amplified from pET15b construct
T2 sequence (Q9M156 1-480): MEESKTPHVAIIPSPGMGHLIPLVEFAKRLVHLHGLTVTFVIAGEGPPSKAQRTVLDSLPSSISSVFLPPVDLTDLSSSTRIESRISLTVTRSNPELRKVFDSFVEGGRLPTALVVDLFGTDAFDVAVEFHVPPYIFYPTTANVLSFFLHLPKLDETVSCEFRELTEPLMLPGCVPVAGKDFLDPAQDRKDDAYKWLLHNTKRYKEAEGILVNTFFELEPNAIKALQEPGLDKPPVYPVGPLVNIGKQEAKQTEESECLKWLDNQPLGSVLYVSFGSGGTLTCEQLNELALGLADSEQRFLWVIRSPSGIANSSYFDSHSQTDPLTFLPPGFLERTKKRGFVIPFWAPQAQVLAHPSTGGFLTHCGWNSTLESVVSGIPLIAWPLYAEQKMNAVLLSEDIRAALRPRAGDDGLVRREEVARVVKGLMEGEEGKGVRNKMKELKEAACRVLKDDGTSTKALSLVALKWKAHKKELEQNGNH
Nature of the test: qPCR DLEnCA, cell-free transcription/translation-derived GT05. Format: biochemical. Conditions: GT05 DNA 5 nM, chemical 1 mM, UDP-Glc 2 μM, probe 0.2 nM; low recovery = substrate glucosylated. The procedure: as §1
PCR tubes were used for most reactions. All incubations were performed at 37° C. Assays were initiated upon the addition of linear DNA (5 nM final concentration) to 4 μl PURExpress Solution A and 3 μl PURExpress Solution B. Samples were incubated at 37° C. for 3 hours prior to addition of UDP-Glucose and chemical (1 mM final concentration) in DMSO. Samples were incubated for an additional 3 hours prior to addition of 1 unit T4 Phage β-glucosyltransferase containing 0.2 nM probe. […]

Test [5] concerns the target T3, GT06 (UGT89B1 (AT1G73880)) (Arabidopsis thaliana, UniProt Q9C9B0).
T3 sequence (Q9C9B0 1-473): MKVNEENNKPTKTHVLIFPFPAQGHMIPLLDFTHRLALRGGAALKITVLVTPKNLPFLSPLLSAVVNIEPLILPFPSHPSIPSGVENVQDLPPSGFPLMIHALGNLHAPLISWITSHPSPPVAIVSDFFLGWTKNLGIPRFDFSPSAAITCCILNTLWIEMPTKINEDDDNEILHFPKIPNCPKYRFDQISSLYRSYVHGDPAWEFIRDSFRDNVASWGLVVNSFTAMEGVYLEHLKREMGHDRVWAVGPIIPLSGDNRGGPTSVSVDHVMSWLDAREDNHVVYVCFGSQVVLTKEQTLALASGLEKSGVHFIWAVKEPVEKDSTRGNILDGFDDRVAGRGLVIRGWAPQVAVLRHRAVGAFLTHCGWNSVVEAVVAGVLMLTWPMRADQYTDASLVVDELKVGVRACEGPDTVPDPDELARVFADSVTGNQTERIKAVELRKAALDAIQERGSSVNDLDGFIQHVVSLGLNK
Nature of the test: qPCR DLEnCA, cell-free transcription/translation-derived GT06. It counts as biochemical. Conditions: GT06 DNA 5 nM, chemical 1 mM, UDP-Glc 2 μM, probe 0.2 nM; low recovery = substrate glucosylated. On the procedure:
as §1, with “After probe purification and MfeI digestion, probe integrity was identified using qPCR. Percent recovery of probe is reported as a heat map (n=8) (specific recovery figures and percent error can be found in FIG. 16). *=p<0.05 vs. no chemical control.” left out

T1 sequence (Q53685 other isoform, or with tags, fused parts or gaps P55A/R82V/R83E/T84P): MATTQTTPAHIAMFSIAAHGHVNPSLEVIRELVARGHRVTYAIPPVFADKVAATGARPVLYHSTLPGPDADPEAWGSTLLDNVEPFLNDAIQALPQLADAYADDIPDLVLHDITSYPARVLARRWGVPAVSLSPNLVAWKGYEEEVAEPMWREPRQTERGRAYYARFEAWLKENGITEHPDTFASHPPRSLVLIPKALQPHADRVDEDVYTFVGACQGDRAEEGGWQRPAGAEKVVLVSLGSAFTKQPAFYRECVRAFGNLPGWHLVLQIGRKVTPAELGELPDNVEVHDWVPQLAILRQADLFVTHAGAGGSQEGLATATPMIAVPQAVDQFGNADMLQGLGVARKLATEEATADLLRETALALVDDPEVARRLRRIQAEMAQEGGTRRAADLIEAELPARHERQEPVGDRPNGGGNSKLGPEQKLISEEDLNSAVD

For `O=c1cc(-c2ccc(O)cc2)oc2cc(O)cc(O)c12` [II, apigenin], in test [1], the “identification as OleD substrate by LCMS” value is given as “identified the chemicals as substrates”. Moreover, the “OleD substrate quality reported in previous studies” value (from here on “OleD substrate quality reported”) in test [2] was “slower rate or with less efficiency than with (I)”. In test [3], the “recovery of intact probe DNA” value was 42%.

Consider `Cc1cc(=O)oc2cc(O)ccc12` [III, 4-methylumbelliferone], for which, in test [1], the “identification as OleD substrate by LCMS” value is on record as “identified the chemicals as substrates”. In test [2], the “OleD substrate quality reported” value was “slower rate or with less efficiency than with (I)”. For the same compound, in test [3], the “recovery of intact probe DNA” value stood at 60%.

As to `O=C(O)Cc1cc(=O)oc2cc(O)ccc12` [IV, 7-hydroxycoumarin-4-acetic acid], in test [2], the “OleD substrate quality reported” value is given as “very weak substrates”. In addition, the “recovery of intact probe DNA” value in test [3] amounted to 82%.

Consider `O=c1cc(-c2ccccc2)oc2cc(O)ccc12` [IX, 7-hydroxyflavone], for which the “recovery of intact probe DNA” value in test [3] was 39%.

On to `O=C(O)c1cc2ccc(O)cc2oc1=O` [V, 7-hydroxycoumarin-3-carboxylic acid], for which the “OleD substrate quality reported” value in test [2] was “very weak substrates”. In addition, the “recovery of intact probe DNA” value in test [3] was found to be 97%.

Take `O=c1c(O)c(-c2ccccc2)oc2ccccc12` [VI, 3-hydroxyflavone]: the “recovery of intact probe DNA” value in test [3] is listed as 42%.

As for `O=c1cc(-c2ccc(O)cc2)oc2ccccc12` [VII, 4-hydroxyflavone], the “significant loss in protection of the DNA probe” value in test [3] was “not the case”.

In the case of `O=c1cc(-c2ccccc2)oc2cccc(O)c12` [VIII, 5-hydroxyflavone], the “significant loss in protection of the DNA probe” value in test [3] is listed as “not the case”.

In the case of `O=C(O)c1cccc(O)c1` [X, 3-hydroxybenzoic acid], the recovery of probe in test [4] is reported as 33%.

For `O=C(O)c1ccc(O)c(O)c1` [XII, 3,4-dihydroxybenzoic acid], the recovery of probe in test [4] was found to be 40%; in test [5] it was 30%.
